From publication PMC9516332 (Frontiers in Oncology, 2022) come the findings set out here.

What all share (test): Kinase panel profiling at 1 µmol/L (MSA or IMAP), percentage inhibition
Common to all, as to assay type: biochemical

The target of test [1] is panel of 255 wild-type kinases (Homo sapiens, UniProt Q9Y463). The following applies: kinase DYRK1B; 1 µmol/L single concentration; read-out: %-inhibition at 1 µmol/L, DYRK1B.
For test [2], the target named is T1, panel of 255 wild-type kinases (Homo sapiens, UniProt Q16566).
T1 sequence (Q16566 1-473): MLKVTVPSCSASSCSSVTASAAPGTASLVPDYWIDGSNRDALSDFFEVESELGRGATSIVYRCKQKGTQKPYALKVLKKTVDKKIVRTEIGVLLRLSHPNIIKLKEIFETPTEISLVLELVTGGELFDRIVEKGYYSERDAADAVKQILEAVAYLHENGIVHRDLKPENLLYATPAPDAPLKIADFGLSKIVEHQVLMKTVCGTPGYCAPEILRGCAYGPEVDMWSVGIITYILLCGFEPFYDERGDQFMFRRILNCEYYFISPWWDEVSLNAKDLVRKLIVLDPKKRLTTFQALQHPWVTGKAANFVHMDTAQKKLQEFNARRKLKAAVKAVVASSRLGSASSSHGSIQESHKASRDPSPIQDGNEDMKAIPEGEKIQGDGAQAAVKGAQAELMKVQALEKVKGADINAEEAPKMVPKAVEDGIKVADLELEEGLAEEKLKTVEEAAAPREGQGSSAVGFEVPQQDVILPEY
The note with it: CaMK4 kinase assay; 1 µmol/L single concentration; read-out: %-inhibition CaMK4.

Test [3] has as its target panel of 255 wild-type kinases (Homo sapiens, UniProt P54756). The note with it: kinase EPHA5; 1 µmol/L single concentration; read-out: %-inhibition at 1 µmol/L, EPHA5.
Test [4] deals with panel of 255 wild-type kinases (Homo sapiens, UniProt Q00535). The note with it: CDK5/p25 kinase assay; 1 µmol/L single concentration; read-out: %-inhibition CDK5/p25.
Test [5] has as its target T2, panel of 255 wild-type kinases (Homo sapiens, UniProt P54762).
T2 sequence (P54762 18-984): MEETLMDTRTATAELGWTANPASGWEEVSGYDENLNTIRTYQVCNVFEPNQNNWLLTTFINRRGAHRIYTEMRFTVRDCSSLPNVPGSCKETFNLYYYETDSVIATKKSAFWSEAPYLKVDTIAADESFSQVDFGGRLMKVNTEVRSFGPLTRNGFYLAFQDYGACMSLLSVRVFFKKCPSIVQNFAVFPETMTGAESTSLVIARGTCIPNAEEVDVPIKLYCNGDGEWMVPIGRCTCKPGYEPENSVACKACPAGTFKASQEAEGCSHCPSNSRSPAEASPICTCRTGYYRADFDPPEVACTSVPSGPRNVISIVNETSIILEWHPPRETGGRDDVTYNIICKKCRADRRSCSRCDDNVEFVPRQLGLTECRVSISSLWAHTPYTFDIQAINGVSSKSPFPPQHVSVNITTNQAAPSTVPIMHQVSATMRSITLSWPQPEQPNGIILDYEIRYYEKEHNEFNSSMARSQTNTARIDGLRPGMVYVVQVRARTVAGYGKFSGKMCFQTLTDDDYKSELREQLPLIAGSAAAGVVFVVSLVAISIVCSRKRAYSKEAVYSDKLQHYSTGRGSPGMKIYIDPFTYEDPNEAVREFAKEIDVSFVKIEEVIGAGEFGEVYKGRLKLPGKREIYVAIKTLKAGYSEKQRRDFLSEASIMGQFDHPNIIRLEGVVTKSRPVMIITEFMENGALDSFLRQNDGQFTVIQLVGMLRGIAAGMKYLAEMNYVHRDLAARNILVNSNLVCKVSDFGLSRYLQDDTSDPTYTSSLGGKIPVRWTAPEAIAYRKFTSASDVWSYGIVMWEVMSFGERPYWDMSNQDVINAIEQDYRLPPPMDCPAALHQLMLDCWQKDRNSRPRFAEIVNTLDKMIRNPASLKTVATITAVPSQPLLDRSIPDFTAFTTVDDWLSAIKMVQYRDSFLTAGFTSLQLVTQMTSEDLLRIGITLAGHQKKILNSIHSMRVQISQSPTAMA
The note with it: kinase EPHB1; 1 µmol/L single concentration; read-out: %-inhibition at 1 µmol/L, EPHB1.

Test [6] addresses panel of 255 wild-type kinases (Homo sapiens, UniProt P51617). The note with it: kinase IRAK1; 1 µmol/L single concentration; read-out: %-inhibition at 1 µmol/L, IRAK1.
For test [7], the target named is panel of 255 wild-type kinases (Homo sapiens, UniProt Q86V86). The following applies: kinase PIM3; 1 µmol/L single concentration; read-out: %-inhibition at 1 µmol/L, PIM3.
The target in test [8] is panel of 255 wild-type kinases (Homo sapiens, UniProt Q9NYA1). The note with it: kinase SPHK1; 1 µmol/L single concentration; read-out: %-inhibition at 1 µmol/L, SPHK1.
Test [9] deals with panel of 255 wild-type kinases (Homo sapiens, UniProt Q05655). The note with it: kinase PKCδ; 1 µmol/L single concentration; read-out: %-inhibition at 1 µmol/L, PKCδ.
Test [10] has as its target T3, panel of 255 wild-type kinases (Homo sapiens, UniProt Q8NE63).
T3 sequence (Q8NE63 1-616): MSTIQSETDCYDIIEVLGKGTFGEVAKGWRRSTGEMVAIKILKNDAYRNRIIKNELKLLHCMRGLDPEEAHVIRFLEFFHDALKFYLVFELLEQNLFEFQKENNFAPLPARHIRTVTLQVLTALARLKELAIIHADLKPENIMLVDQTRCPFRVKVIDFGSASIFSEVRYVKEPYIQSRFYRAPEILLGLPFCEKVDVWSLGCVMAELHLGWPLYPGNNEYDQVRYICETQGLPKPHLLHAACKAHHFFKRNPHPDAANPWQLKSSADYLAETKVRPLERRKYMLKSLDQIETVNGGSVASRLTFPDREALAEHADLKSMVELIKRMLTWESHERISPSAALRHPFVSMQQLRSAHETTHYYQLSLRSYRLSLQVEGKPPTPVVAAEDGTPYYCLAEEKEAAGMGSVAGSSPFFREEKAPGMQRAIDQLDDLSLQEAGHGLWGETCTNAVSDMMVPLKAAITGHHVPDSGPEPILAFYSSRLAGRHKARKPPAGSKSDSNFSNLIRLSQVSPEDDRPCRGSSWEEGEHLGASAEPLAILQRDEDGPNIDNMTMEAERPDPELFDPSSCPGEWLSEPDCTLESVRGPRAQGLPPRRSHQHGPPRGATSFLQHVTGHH
The following applies: kinase HIPK4; 1 µmol/L single concentration; read-out: %-inhibition at 1 µmol/L, HIPK4.

As for `C=CC(=O)N1CCC([C@@H]2CCNc3c(C(N)=O)c(-c4ccc(Oc5ccccc5)cc4)nn32)CC1` [zanubrutinib], the inhibition at 1 µM in [1] is 5.39%; in [2], 0.733%; in [3] it was 0.0392%; in [4], -17%; in test [5] it was -2%; in [6] it was -2.53%. The inhibition at 1 µM was -8% in test [7], -15% in [8], -6% in test [9] and 7% in [10].
